Drawing on EP0340778A2, “Prodrugs of 2',3'- Didehydro-2',3'-Dideoxynucleosides” (Bristol-Myers Squibb Company, priority 1988, dated 1989), this text covers IC50 for nine molecules.

In the first assay the test system is HIV (LAV strain). Nature of the assay: anti-HIV/LAV activity in cultures of CEM-F cells, p-24 gag protein enzyme capture assay (ELISA). The format is cell-based. The following applies: Human immunodeficiency virus 1, CCRF-CEM, 192 h, read-out: ID₅₀. As for the experimental part:
The anti-HIV/LAV activity of several compounds representative of this invention and of d4T for comparison was measured in cultures of CEM-F cells. The CEM cells were infected with approximately 30 TCID₅₀ (50% tissue culture infectious dose) of HIV (LAV strain). The cells were then incubated for 45 min 37°C. The test compounds, in culture medium, were added at various concentrations to the infected cells and then incubated for a further 8 days. After 8 days the antiviral activity was evaluated in the culture media supernatant for p-24 gag protein by an enzyme capture assay (ELISA). The antiviral activity was expressed as the dose which inhibits 50% of the virus expression (ID₅₀ in µM) as detected by the assay described.
A general note: In an ELISA, binding on a coated surface is turned into a signal by an enzyme label.
On to `CC(=O)OC[C@@H]1C=C[C@H](n2cc(C)c(=O)[nH]c2=O)O1` [Example 1, 5′-O-Acetyl-2′,3′-didehydro-2′,3′-dideoxythymidine], for which the IC50 worked out at 3200 nM.

On to `COCC(=O)OCC1C=CC(n2cc(C)c(=O)[nH]c2=O)O1` (stereo not drawn) [Example 3, 5′-O-Methoxyacetyl-2′,3′-didehydro-2′,3′-dideoxythymidine], for which the IC50 came out at 400 nM.

As for `Cc1cn([C@H]2C=C[C@@H](COC(=O)C(C)(C)C)O2)c(=O)[nH]c1=O` [Example 4, 5′-O-Pivaloyl-2′,3′-didehydro-2′,3′-dideoxythymidine], the IC50 amounted to 4800 nM.

Consider `COC(=O)OC[C@@H]1C=C[C@H](n2cc(C)c(=O)[nH]c2=O)O1` [Example 5, 5′-O-Methoxycarbonyl-2′,3′-didehydro-2′,3′-dideoxythymidine], for which the IC50 was 3200 nM.

`Cc1cn([C@H]2C=C[C@@H](COC(=O)OC3CCCCC3)O2)c(=O)[nH]c1=O` [Example 6, 5′-O-Cyclohexyloxycarbonyl-2′,3′-didehydro-2′,3′-dideoxy-thymidine]: the IC50 was determined as 600 nM.

As for `Cc1cn(C2C=CC(COC(=O)c3ccccc3)O2)c(=O)[nH]c1=S` (stereo not drawn) [Example 8, 5′-O-Benzoyl-2′,3′-dihydro-2′,3′-dideoxy-4-thio-thymidine], the IC50 is 500 nM.

For `Cc1cn([C@H]2C=C[C@@H](CO)O2)c(=O)[nH]c1=O` [d4T, 2′,3′-didehydro-2′,3′-dideoxythymidine, reference compound], the IC50 was 200 nM.

Staying with this assay, now noted: Human immunodeficiency virus 1, CCRF-CEM, 192 h; dose which inhibits 50% of the virus expression; CEM cells infected with approximately 30 TCID₅₀ of HIV (LAV strain); 8 days incubation with compound; p-24 gag protein in culture media supernatant; read-out: ID₅₀.
As to `O=C(OC[C@@H]1C=C[C@H](n2ccc(=S)[nH]c2=O)O1)c1ccccc1` [Example 11, 5′-O-Benzoyl-2′,3′-didehydro-2′,3′-dideoxy-4-thio-uridine], the IC50 was 500 nM.

In the case of `Nc1ccn([C@H]2C=C[C@@H](COC(=O)c3ccccc3)O2)c(=O)n1` [Example 12, 5′-O-Benzoyl-2′,3′-didehydro-2′,3′dideoxycytidine], the IC50 worked out at 100 nM.
